This note sets out measurements from patent publication US8921569B2, “Rationally improved isoniazid and ethionamide derivatives and activity through selective isotopic substitution” (STC.UNM, priority 2007, dated 2014).

For experiment [1], the system named is M bovis BCG. Type of experiment: cell-based. Particulars: O 1 micrograms per ml, 3 or 4 days after treatment, triplicate cultures.
Experiment [2] relates to M bovis BCG. It counts as cell-based. Particulars: O 1 micrograms per ml, cultures at day 4 plated out.

As for `NN[13C](=O)c1ccncc1` [C13 INH, 4-pyridine-[^13C]carboxylic acid hydrazide], the “antimicrobial effects by cultures optical density, compared with 12C isoniazid” value in the experiment with M bovis BCG [1] was “significant increase in activity”. The “activity by CFU (colony forming units), compared with 12C isoniazid” value in the experiment with M bovis BCG [2] was “marked expected increase in activity”.
